Experimental data: patent US20090170902A1, “COMPOUNDS WHICH POTENTIATE GLUTAMATE RECEPTOR AND USES THEREOF IN MEDICINE” (priority 2006, published 2009)

biological target: T1, human GluR2 flip (unedited) AMPA receptor subunit (Homo sapiens, UniProt P42262); experiment: Calcium influx fluorescence assay (FLUO4, FLIPR); assay type: cell-based; details: HEK293; HEK 293 cells expressing human GluR2 flip (unedited); relative to fluorescence increase induced by cyclothiazide at maximum response; read-out: activity relative to cyclothiazide (at its maximal response)
T1 construct: expressed in transfected cells
Description: 384 well plates are prepared containing confluent monolayer of HEK 293 cells either stably expressing or transiently transfected with human GluR2 flip (unedited) AMPA receptor subunit. These cells form functional homotetrameric AMPA receptors. The tissue culture medium in the wells are discarded and the wells are each washed three times with standard buffer (80 μL) for the stable cell line (145 mM NaCl, 5 mM KCl, 1 mM MgCl2, 2 mM CaCl2, 20 mM N-[2-hydroxyethyl]-piperazine-N-[2-ethanesulfonic acid (HEPES), 5.5 mM glucose, pH 7.3) or with a Na-free buffer for the transient transfected cells (145 mM N-methyl-glucamine instead of NaCl). The plates are then incubated for 60 minutes in the dark with 2 μM FLUO4-AM dye (20 μL) (Molecular Probes, Netherlands) at room temperature to allow cell uptake of the FLUO-4AM, which is then converted to FLUO-4 by intracellular esterases which is unable to leave the cell. After incubation each well is washed three times with buffer (80 μL) (30 μL of buffer remained in each well after washing).
Compounds of the invention (or reference compounds such as cyclothiazide) are dissolved in dimethylsulfoxide (DMSO) at a stock concentration of 10 mM. These solutions are further diluted with DMSO using a Biomek FX (Beckman Coulter) in a 384 compound plate. Each dilution (1 μL) is transferred to another compound plate and buffer (50 μL) is added. An agonist stimulus (glutamate) plate is prepared by dissolving sodium glutamate in water to give a concentration of 100 mM. This solution is diluted with buffer to give a final concentration of 500 μM and dispensed into another 384-well plate (50 μL/well) using a Multidrop (Thermolabsystems).
The cell plate is then transferred into a fluorescence imaging plate based reader [such as the FLIPR384 (Molecular Devices)]. A baseline fluorescence reading is taken over a 10 to 240 second period, and then 10 μL from each plate containing a compound of the invention made up in standard buffer solution (in a concentration range from […]) is added (to give a final concentration in the range 30 μM to 3 pM). The fluorescence is read over 5 minute period. 500 μM glutamate solution (10 μL) is added (to give a final concentration of 100 μM). The fluorescence is then read over a 4 minute period. The activities of the compounds of the invention and reference compounds are determined by measuring peak fluorescence after the last addition. The activity is also expressed relative to the fluorescence increase induced by cyclothiazide at their maximum response (i.e. greater than 30 μM).
The assay described above is believed to have an effective limit of detection of a pEC50 in the region of 3.5-4.0 due to the limitations of compound solubility. The pEC50 result is generally considered to be accurate +/−0.3.

T1 sequence (P42262 25-883 isoform P42262-2 limits assumed): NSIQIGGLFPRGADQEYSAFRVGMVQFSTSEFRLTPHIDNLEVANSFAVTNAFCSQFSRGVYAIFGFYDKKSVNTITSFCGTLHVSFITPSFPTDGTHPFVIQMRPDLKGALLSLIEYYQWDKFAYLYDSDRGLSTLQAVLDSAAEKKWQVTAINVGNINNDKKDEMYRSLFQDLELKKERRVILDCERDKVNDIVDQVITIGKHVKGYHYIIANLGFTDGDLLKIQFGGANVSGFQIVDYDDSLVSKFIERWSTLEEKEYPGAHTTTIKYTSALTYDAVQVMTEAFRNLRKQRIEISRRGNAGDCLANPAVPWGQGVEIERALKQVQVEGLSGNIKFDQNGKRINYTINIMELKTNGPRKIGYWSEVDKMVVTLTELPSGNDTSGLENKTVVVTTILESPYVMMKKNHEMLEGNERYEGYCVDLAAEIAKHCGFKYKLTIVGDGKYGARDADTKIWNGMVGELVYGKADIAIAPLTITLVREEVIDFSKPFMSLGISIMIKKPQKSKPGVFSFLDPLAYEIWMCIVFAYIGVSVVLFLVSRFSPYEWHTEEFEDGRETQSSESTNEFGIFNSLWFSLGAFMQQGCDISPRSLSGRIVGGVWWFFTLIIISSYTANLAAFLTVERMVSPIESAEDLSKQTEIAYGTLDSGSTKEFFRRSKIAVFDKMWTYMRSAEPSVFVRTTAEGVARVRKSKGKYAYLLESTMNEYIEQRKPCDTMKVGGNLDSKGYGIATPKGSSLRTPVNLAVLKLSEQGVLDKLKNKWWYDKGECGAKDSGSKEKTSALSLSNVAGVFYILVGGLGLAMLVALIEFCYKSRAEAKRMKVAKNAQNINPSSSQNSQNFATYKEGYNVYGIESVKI

Emax, ≥ 50%:
CC(C)S(=O)(=O)N[C@@H]1CCO[C@@H]1c1ccc(-c2ccc(F)nc2)cc1 (relative stereo) [Example 1, N-{cis-2-[4-(6-fluoro-3-pyridinyl)phenyl]tetrahydro-3-furanyl}-2-propanesulfonamide]
Cc1ccc(-c2ccc([C@H]3OCC[C@H]3NS(=O)(=O)C(C)C)cc2)cn1 (relative stereo) [Example 2, N-{cis-2-[4-(6-methyl-3-pyridinyl)phenyl]tetrahydro-3-furanyl}-2-propanesulfonamide]
CC(C)S(=O)(=O)N[C@@H]1CCO[C@@H]1c1ccc(-c2ccc(F)cn2)cc1 (relative stereo) [Example 3, N-{cis-2-[4-(5-fluoro-2-pyridinyl)phenyl]tetrahydro-3-furanyl}-2-propanesulfonamide]
CC(C)S(=O)(=O)N[C@@H]1CCO[C@@H]1c1ccc(-c2cncc(F)c2)cc1 (relative stereo) [Example 4, N-{cis-2-[4-(5-fluoro-3-pyridinyl)phenyl]tetrahydro-3-furanyl}-2-propanesulfonamide]
Cc1cncc(-c2ccc([C@H]3OCC[C@H]3NS(=O)(=O)C(C)C)cc2)c1 (relative stereo) [Example 5, N-{cis-2-[4-(5-methyl-3-pyridinyl)phenyl]tetrahydro-3-furanyl}-2-propanesulfonamide]
CC(C)S(=O)(=O)N[C@@H]1CCO[C@@H]1c1ccc(-c2ccc(F)cc2)cc1 (relative stereo) [Example 6, N-[cis-2-(4′-fluoro-4-biphenylyl)tetrahydro-3-furanyl]-2-propanesulfonamide]
CC(C)S(=O)(=O)N[C@@H]1CCO[C@@H]1c1ccc(-c2ccc(C#N)cc2)cc1 (relative stereo) [Example 7, N-[cis-2-(4′-cyano-4-biphenylyl)tetrahydro-3-furanyl]-2-propanesulfonamide]
CC(=O)c1cccc(-c2ccc([C@H]3OCC[C@H]3NS(=O)(=O)C(C)C)cc2)c1 (relative stereo) [Example 8, N-[cis-2-(3′-acetyl-4-biphenylyl)tetrahydro-3-furanyl]-2-propanesulfonamide]
CC(C)S(=O)(=O)N[C@@H]1CCO[C@@H]1c1ccc(-c2cccs2)cc1 (relative stereo) [Example 9, N-{cis-2-[4-(2-thienyl)phenyl]tetrahydro-3-furanyl}-2-propanesulfonamide]
